Source: patent US20100099698A1, “Compositions for Improving Skin Conditions Comprising Matrine or Its Oxidized Derivatives” (Biospectrum Inc., priority 2007, published 2010)

Test system: B16 mouse melanoma cells
Test: Cytotoxicity at the test concentrations in B16 melanoma cells
Assay type: cell-based
Conditions: 10 μM, 100 μM and 500 μM

With O=C1CCC[C@@H]2[C@H]3CCCN4CCC[C@@H](CN12)[C@@H]34 [Matrine, matrine] as the compound, how does the cytotoxicity read?
Its cytotoxicity is “did not show cytotoxicity”.
